Reference: patent US12391701B2, “Chromene-based compounds, methods and uses thereof” (University of Minho, priority 2019, dated 2025)
≈ marks a conversion by molar mass, not a printed value.

Experiments:
[1] = Highest soluble concentration in C. elegans assay; format: physicochemical; settings: C. elegans liquid culture medium (S-medium) with 1% DMSO, 20 °C, aqueous buffer, kinetic from dmso stock, read-out: highest soluble concentration possible
Protocol: The compounds were tested at several concentrations, up to the highest soluble concentration possible −150 μM (MC369, 75 μM) (FIG. 12). […] The rate of food consumption between days 3-5 was used as an indication for worm development, health and fertility and compared to 1% DMSO, (vehicle, not toxic).
In an embodiment, Bristol strain N2 (provided by the CGC, funded by the NIH Office of Research Infrastructure Programs—P40 OD010440) was used to test each compound's toxicity based on a food clearance assay using C. elegans. The assay was performed on 96-well plates in liquid culture (Voisine et al. 2007; Teixeira-Castro et al. 2015). Each well, with a final volume of 60 μL, comprised the following: approximately 20 worms in egg stage, OP50 bacteria to a final OD of 0.6-0.8 (595 nm) and each compound at the appropriate concentration. The worms were grown with continuous shaking at 180 rpm/20° C. (Shel lab Si series incubator) for 7 days and the absorbance (OD595) was measured daily on a microplate reader (Tecan Infinite M200). The effect of the compounds on C. elegans physiology was monitored by the rate at which the E. coli food suspension was consumed (FIG. 14). Age-synchronized worm eggs were obtained by “egg prep” as follows: adult worms were treated with an alkaline hypochlorite solution (20% bleach, 25% 1M NaOH) for 6 minutes, thereafter centrifuged and washed in M9 buffer twice. […]

C57BI/6 mice = assay: Toxicity in C57BI/6 mice, 2nd trial; format: in vivo; settings: 3 mg/Kg i.p. daily for 7 days
Protocol: In an embodiment, the effects of compound treatment on C57BI/6 mice—2nd trial was analysed. […] FIG. 16A is a schematic representation of the experiment timeline. 3-month old female and male animals were used (n=6/group/gender) and injected either with MC408 3 mg/Kg or vehicle (saline, Tween80 and methylcellulose) (i.p.) daily for 7 days. In this trial the number of animals per group was increased and the experiment was conceived to collect blood before and after the treatment. […] Data is presented as mean±SE.

[2] = test system: TNBC cell line MDA-MB-231; assay: Orthotopic breast cancer xenograft in NSG mice; format: in vivo
Protocol: In an embodiment, the in vivo therapeutic efficacy of compound MC408 was analysed using the mouse model. […] MDA-MB-231 cells were injected into the mammary fat pad of NSG mice (n=6 or 7 per group). Treatment was administered 3 days post-implantation for one week. NT=Vehicle; Dose 1=3 mg/kg; Dose 2=10 mg/kg; Dose 3=50 mg/kg. *, p<0.05; **, p<0.01; ****, p<0.0001 (compared to NT group; two-way ANOVA post-hoc Tukey's test or unpaired t-test with Welch's correction).
In an embodiment, NSG (NOD Scid Gamma) female mice (3-6 months) were injected with a mixture of 0.6×10^6 MDA-MB-231 breast cancer cells and matrigel (ratio 1:1) in the mammary fat pad. Mice were randomly assigned to treatment groups (at least 6 mice/group), which was started 3 days post-implantation using 3 independent doses of compound MC408 (dose 1=3 mg/kg, dose 2=10 mg/kg, and dose 3=50 mg/kg) or vehicle (PBS 1× and Matrigel, ratio 1:1), and was administered daily for 7 days. Mice were maintained under standard laboratory conditions. Animal tumor size (calculated by measuring the two largest sides and applying the formula: v=3.14×L1×L1×L2/6; being L1 the largest side, and L2 the other one) was measured and recorded regularly. At day 47 post-implantation, animals were sacrificed and tumors were excised. All animal procedures were conducted in accordance with the guidelines for the care and use of laboratory animals (European Directive 2010/63/EU).

[3] = 3, 10, 50 mg/kg daily for 7 days, dose-dependent

## COc1cccc2c1Oc1nc(-c3ccccc3F)[nH]c1C2C1c2cccc(OC)c2Oc2nc(-c3ccccc3F)[nH]c21 (stereo not shown) [MC369, 2,2′-bis(2-fluorophenyl)-5,5′-dimethoxy-1,1,9,9′-tetrahydro-9,9′-bichromeno[2,3-]imidazoles]
[1]
  solubility: 75 µM (≈ 44.3 µg/mL)

## COc1cccc2c1Oc1nc(-c3ccc(Br)cc3)[nH]c1C2 [MC408, 2-(4-bromophenyl)-5-methoxy-3,9-dihydrochromeno[2,3-d]imidazoles]
C57BI/6 mice
  body weight: no differences were found
[2]; [3]
  tumor volume: significantly decreased
  tumor weight: significantly decreased
[2]; dose of 50 mg/kg
  reduction of tumor volume comparing to the vehicle group: more than 40%
  reduction of tumor weight comparing to the vehicle group: more than 40%
[2]; tested treatment regimen, whole experiment
  weight loss and other side effects: no weight loss nor other side effects
